Source: patent publication US20100144591A1, “BENZIMIDAZOLE DERIVATIVES AND METHODS OF USE THEREOF” (Schering Corporation, priority 2007, published 2010)

System: STZ-induced type 2 diabetic mice
Test: In vivo effect on glucose levels in diabetic mice
Conditions: 10 mg/kg/day in diet; relative to control mice and mice treated with rosiglitazone (5 mg/kg/day in diet)
Description: The leftmost black solid bar represents diabetic control mice, the second from left black solid bar represents mice treated for one week with rosiglitazone at 5 mg/kg/day; the third from left black solid bar represents mice treated for one week with Compound 174 at 10 mg/kg/day; the fourth from left black solid bar represents mice treated for one week with Compound 174 at 1 mg/kg/day; and the white bar represents nondiabetic control mice. The y-axis indicates non-fasting glucose levels (mg/dl).
Five-week-old male ICR mice were purchased from Taconic Farm (Germantown, N.Y.) and placed on a “western diet” containing 45% (kcal) fat from lard and 0.12% (w/w) cholesterol. After 3 weeks of feeding, the mice were injected once with low dose streptozocin (STZ, ip 75-100 mg/kg) to induce partial insulin deficiency. […] The diabetic mice were then placed in one of groups: (1) a non-treated diabetic control group, (2) a group treated with rosiglitazone (5 mg/kg/day in diet); (3) a group treated with Compound 174(10/mg/kg in diet) for four weeks; and (4) a group treated with Compound 174 (1/mg/kg in diet) for four weeks.

In the case of `Nc1cc(CN2CCC(C(=O)N3CCC(n4c(-c5ccc(F)c(F)c5)nc5cccnc54)CC3)CC2)ccn1` [Compound 174], the HbA1C levels is reported as “significantly reduced” and the non-fasting glucose levels is reported as “significantly reduced”.
